The record followed here is PubChem BioAssay AID1996.

Values after ≈ are worked out from the molar mass of the structure shown. Bounds are passed on as bounds.

For this data set the following is noted: buffer; pH 7.4; 200.0 µM.
`COc1ccc(Nc2nc(C)cc(C)c2C(N)=O)cc1OC` showed a kinetic solubility of 43.8 µg/mL (≈ 145 µM).

`O=C(OCC(=O)N1CCCC1)c1ccc(Cl)nc1` came in with a kinetic solubility greater than 40.3 µg/mL.

On to `COc1ccc(/C=N/NC(=O)c2ccccc2O)cc1CN1CCOCC1`, for which the kinetic solubility is greater than 55.4 µg/mL.

`O=C(Nc1sc2c(c1C(=O)O)CCC2)c1cccc(Cl)c1` showed a kinetic solubility greater than 48.3 µg/mL.

Compound `Nc1ccc(CCN2CCN(c3cccc(C(F)(F)F)c3)CC2)cc1` gave a kinetic solubility greater than 52.4 µg/mL.

As for `CCOC(=O)/C(=C\c1ccccc1)NC(=O)c1ccccc1`, the solubility (kinetic) is greater than 44.3 µg/mL.

In turn, `Cc1ccc(CNC(=S)NC2CCC(C(C)(C)C)CC2)cc1` (centres undefined) showed a solubility (kinetic) of less than 0.3 µg/mL.

The compound `COc1ccc(C2c3ccsc3CCN2C(=O)C(C)(C)C)cc1` (centres undefined) had a kinetic solubility of 14.9 µg/mL (≈ 45.2 µM).

Take `COc1ccc(COC(=O)Nc2c(SC)nsc2SC)cc1`: the kinetic solubility came out at 1 µg/mL (≈ 2.81 µM).

`O=[N+]([O-])c1cccc(N=Cc2sc3ccccc3c2O)c1`: the kinetic solubility was less than 0.3 µg/mL.

In turn, `O=c1ccc2ccc(Oc3ccc([N+](=O)[O-])cc3Cl)cc2o1` displayed a solubility (kinetic) of 2.5 µg/mL (≈ 7.87 µM).

`CCC1Cc2c(nc(N)c3c(N)nc(N4CCOCC4)c(C#N)c23)O1` (centres undefined) had a solubility (kinetic) of 8.9 µg/mL (≈ 26.1 µM). This solubility kinetic lies about 3.6-fold higher than the previous one.

`O=C(CSCc1ccc(Br)cc1)N1CCCC1` came in with a kinetic solubility greater than 47.1 µg/mL.

In the case of `CN(CCc1ccccn1)c1ccc([N+](=O)[O-])cn1`, the kinetic solubility came to 38.1 µg/mL (≈ 148 µM).

In the case of `Cc1cccc(CC(=O)N2CCOCC2)c1`, the kinetic solubility was greater than 32.9 µg/mL.

In turn, `COc1ccc(C(=O)NC2CCN(C(=O)NCc3ccccc3)CC2)cc1` registered a solubility (kinetic) of 5.4 µg/mL (≈ 14.7 µM).

`CC(=O)N/C(N)=N/c1nc2cc([N+](=O)[O-])ccc2o1` came in with a solubility (kinetic) of 3.8 µg/mL (≈ 14.4 µM). The solubility kinetic values of the last two compounds are within 1.5-fold of each other.

For the compound `COc1ccc(CCN(C)CCCC(C#N)(c2cc(OC)c(OC)c(OC)c2)C(C)C)cc1OC.Cl` (centres undefined), the solubility (kinetic) is greater than 78.2 µg/mL.

`COc1ccccc1COC(=O)N/C=C/c1ccco1` returned a solubility (kinetic) of 18.3 µg/mL (≈ 67 µM).

`Nc1cc2c(cc1[N+](=O)[O-])OCCOCCOCCO2`: the kinetic solubility is greater than 42.6 µg/mL.

Regarding `CC(C)(CO)NCC#Cc1ccccc1.Cl`, the solubility (kinetic) is greater than 36 µg/mL.

The compound `CC1CCc2c(C(=O)Nc3ccccn3)csc2C1` (centres undefined) yielded a solubility (kinetic) of 11.6 µg/mL (≈ 42.6 µM).

`COc1ccc(CCNC(=O)CCNC(=O)c2ccco2)cc1OC` gave a solubility (kinetic) of 48.7 µg/mL (≈ 141 µM).

`CN(C(=O)CSc1ncccn1)C1CCS(=O)(=O)C1` (centres undefined) showed a kinetic solubility of 42.2 µg/mL (≈ 140 µM).

In turn, `COc1ccc(OCC(=O)OCC(=O)NC2CCCC2)cc1` had a kinetic solubility greater than 46.1 µg/mL.

For the compound `O=C(/C=C/c1ccco1)NC(=S)Nc1cccc(C(=O)O)c1`, the kinetic solubility is greater than 47.4 µg/mL.

Consider `CC(C)C(NC(=O)C(C)N1C(=O)c2ccccc2C1=O)c1ccccc1` (centres undefined), for which the solubility (kinetic) is greater than 52.6 µg/mL.

`O=C(Cc1c(Cl)cccc1Cl)Nc1ccncc1Cl` came in with a kinetic solubility of 6.1 µg/mL (≈ 19.3 µM).

The compound `COc1ccc(N2CCN(c3ccc(Cl)nn3)CC2)cc1` displayed a kinetic solubility greater than 45.7 µg/mL.

On to `O=C(COC(=O)CNC(=O)c1ccc(Cl)c([N+](=O)[O-])c1)NC(=O)c1ccccc1`, for which the solubility (kinetic) stood at 52.9 µg/mL (≈ 126 µM).

Consider `Cc1cc(NC(=O)c2cc(-c3ccncc3)nc3ccccc23)ccc1Br`, for which the solubility (kinetic) was determined as 1.2 µg/mL (≈ 2.87 µM).

`O=C(CN1C(=O)NC2(CCc3ccccc32)C1=O)c1cccs1` (centres undefined) gave a kinetic solubility greater than 49 µg/mL.

Turning to `COc1cccc2c1O/C(=N\O)C(C(=O)Nc1ccc(C)cc1)C2` (centres undefined), the kinetic solubility was determined as 45.7 µg/mL (≈ 140 µM).

For `CCCS(=O)(=O)N1CCC(C(=O)NCCC(C)C)CC1`, the solubility (kinetic) was greater than 45.7 µg/mL.

Turning to `CSc1ncccc1C(=O)OCC(=O)C(C)(C)C`, the solubility (kinetic) is 39.6 µg/mL (≈ 148 µM).

The compound `Cc1ccc2cc3c(nc2c1)OCC3` showed a kinetic solubility greater than 27.8 µg/mL.

`COCCNC(=O)c1cc2c(s1)-c1ccc(Cl)cc1SC2` had a solubility (kinetic) of 4.5 µg/mL (≈ 13.2 µM).

Consider `NS(=O)(=O)c1ccc(CNc2ncnc3sccc23)cc1`, for which the solubility (kinetic) is greater than 48.1 µg/mL.

The compound `NC(=NCCc1ccc(Cl)cc1)NS(=O)(=O)c1ccccc1` came in with a solubility (kinetic) of 47.5 µg/mL (≈ 141 µM).

Take `CC(CN1CCOCC1)OC(=O)c1cccc(Cl)c1.Cl` (centres undefined): the kinetic solubility worked out at 43.2 µg/mL. The solubility kinetic values of the last two compounds are within 1.5-fold of each other.

On to `Cl.Nc1ccc(Oc2cc(N)cc(Oc3ccccc3)c2)cc1`, for which the solubility (kinetic) was found to be 30.1 µg/mL. The solubility kinetic values of the last two compounds are within 1.5-fold of each other.

Regarding `COc1ccccc1C1CCN(c2cc(O)ccc2[N+](=O)[O-])CC1`, the solubility (kinetic) stood at 38.9 µg/mL (≈ 118 µM).

Turning to `Cc1ccc(C)c(Nc2cc(C)nc3ccccc23)c1`, the kinetic solubility was greater than 39.4 µg/mL.

In turn, `CC(C)c1c(O)nc(SCC(=O)N2CCCCC2)[nH]c1=O` came in with a kinetic solubility greater than 46.7 µg/mL.

For the compound `O=C(NC1CCSC1=O)C1CC(=O)N(c2ccc(F)cc2)C1` (centres undefined), the solubility (kinetic) turned out to be 46.2 µg/mL (≈ 143 µM).

In turn, `CCN(C(=O)CSc1nc2ccccc2[nH]1)C1CCS(=O)(=O)C1` (centres undefined) had a solubility (kinetic) greater than 53 µg/mL.

Compound `CCc1c(SCCC(=O)O)nc2ccccc2c1C` yielded a solubility (kinetic) greater than 41.3 µg/mL.

`CC(C)C(NC(=O)C1CCCCC1)C(=O)NCCc1ccccc1` (centres undefined) came in with a solubility (kinetic) of 1.3 µg/mL (≈ 3.93 µM).

Compound `COc1cc(/C=N/c2oc(C)c(C)c2C#N)cc(Br)c1O` registered a kinetic solubility of 8 µg/mL (≈ 22.9 µM).

As for `COc1ccc(CCn2c(C)c(C(C)=O)c(C(C)=O)c2C)cc1OC`, the solubility (kinetic) was greater than 51.5 µg/mL.

The compound `CC(O)c1nc2ccccc2n1C(C)c1ccccc1` (centres undefined) had a kinetic solubility greater than 40 µg/mL.

Compound `CCCCOC(=O)CSc1nc2ccccc2o1` yielded a solubility (kinetic) of 5.4 µg/mL (≈ 20.4 µM).

On to `CCOc1ccc(CNC(=O)CCc2cn(C)c3ccccc23)cc1`, for which the solubility (kinetic) was 2.1 µg/mL (≈ 6.24 µM).

`Cn1c(SCc2cccc(Br)c2)nc2ccccc2c1=O` gave a kinetic solubility of less than 0.4 µg/mL.

`O=C(Nc1ccc2ccccc2n1)Nc1ccccc1F` came in with a kinetic solubility of less than 0.2 µg/mL.

As to `O=C(C1CCCCC1)N1CCC(O)(c2ccc(Cl)cc2)CC1`, the kinetic solubility is greater than 48.3 µg/mL.

For the compound `Nn1cnnc1SCC(=O)Nc1ccc2c(c1)OCO2`, the kinetic solubility is greater than 44 µg/mL.

Regarding `COc1ccccc1C(=O)c1c(C)c(CCC#N)n2ccccc12`, the kinetic solubility amounted to 40.6 µg/mL (≈ 128 µM).

Consider `COc1ccc(-c2cn3cccnc3n2)cc1`, for which the solubility (kinetic) is greater than 33.8 µg/mL.

The compound `COc1cccc(N2CCN(C(=O)CCNS(=O)(=O)c3ccc(F)c(F)c3)CC2)c1` showed a solubility (kinetic) of 56.7 µg/mL (≈ 129 µM).

The compound `CC(C)(C)c1ccc(C(=O)/C(C#N)=C/c2cccs2)cc1` had a kinetic solubility of 4.1 µg/mL (≈ 13.9 µM).

`CC(O)c1nc2ccccc2n1CCCCOc1ccccc1` (centres undefined) gave a kinetic solubility of 43.9 µg/mL (≈ 141 µM).

`CC1CCCCC1NC(=O)CNC(=O)c1ccco1` (centres undefined): the solubility (kinetic) was determined as 37.2 µg/mL (≈ 141 µM).

As for `N#Cc1c(-c2ccc(Cl)cc2)c2c([nH]c1=O)-c1ccccc1OC2`, the solubility (kinetic) came to 7.6 µg/mL (≈ 22.7 µM).

Turning to `COc1ccccc1C(=O)OCC(=O)NC1CCCC1`, the solubility (kinetic) was greater than 41.6 µg/mL.

`C[C@H](Nc1ccc(C(F)(F)F)cc1[N+](=O)[O-])C(=O)O.[Cl-]` displayed a kinetic solubility greater than 47 µg/mL.

`Cc1sc2ncnc(SCC(=O)NC(C)(C)C)c2c1C`: the kinetic solubility worked out at 19.3 µg/mL (≈ 62.4 µM).

In the case of `COc1cc(S(=O)(=O)NCCCn2ccnc2)ccc1F`, the kinetic solubility came to 46.2 µg/mL (≈ 147 µM). This solubility kinetic is about 2.4-fold higher than that of the compound before.

Consider `COc1ccc(NC(=O)CN2C(=O)NC(C)(c3ccc4c(c3)OCCO4)C2=O)cc1S(N)(=O)=O` (centres undefined), for which the solubility (kinetic) is greater than 73.6 µg/mL.

For `NC(CS(=O)O)C(=O)O` (centres undefined), the solubility (kinetic) is greater than 23 µg/mL.

In the case of `CS(=O)(=O)c1cccc(S(=O)(=O)N2CCCCCC2)c1`, the kinetic solubility is greater than 47.6 µg/mL.

In turn, `COc1cccc(NC(=O)COC(=O)CNC(=O)C2CCCCC2)c1` came in with a solubility (kinetic) greater than 52.3 µg/mL.

In turn, `CC1(C)CC(NC(=O)C2CCCCC2)CC(C)(C)N1` yielded a kinetic solubility of 35.2 µg/mL (≈ 132 µM).

In the case of `CN(c1ccccc1)S(=O)(=O)c1ccc2[nH]c(=O)[nH]c2c1`, the solubility (kinetic) is 16.6 µg/mL (≈ 54.7 µM). This solubility kinetic lies about 2.1-fold lower than the previous one.
